Measured values published in patent US12084472B2 (Ardelyx, Inc., priority 2015, dated 2024).
Where a name gives a salt, the structure may show the parent alone.

target: T1, human TGR5 (Homo sapiens, UniProt Q8TDU6); experiment: Cell-based TGR5 assay (cAMP generation, HTRF); conditions: HEK293 cells stably transfected with human TGR5; cAMP by HTRF; 30 minutes at 37° C.; read-out: pEC50 Human TGR5 (converted)
T1 construct: expressed in transfected cells; host or cells: HEK293
T1 sequence (Q8TDU6 1-330): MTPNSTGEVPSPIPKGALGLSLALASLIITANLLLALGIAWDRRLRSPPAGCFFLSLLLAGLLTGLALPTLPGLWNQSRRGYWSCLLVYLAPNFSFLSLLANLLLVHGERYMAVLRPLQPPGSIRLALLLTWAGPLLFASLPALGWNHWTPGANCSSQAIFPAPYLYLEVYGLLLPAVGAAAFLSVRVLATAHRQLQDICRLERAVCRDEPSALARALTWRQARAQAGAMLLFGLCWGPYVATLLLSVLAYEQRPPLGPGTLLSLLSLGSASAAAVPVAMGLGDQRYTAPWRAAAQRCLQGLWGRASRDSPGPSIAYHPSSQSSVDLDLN
Outline: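 Read-out was HTRF detection of cAMP, converted to concentration via a standard curve and fitted (3-parameter logistic) for pEC50 and maximal response. Agonist stimulation used HEK293 cells stably transfected with human TGR5, incubated 30 min at 37° C in IBMX-containing buffer at 0.05 nM to 10 μM compound.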

SMILES | EC50 [nM]
FC(F)(F)c1ccc(Cl)cc1COC1(c2cnccc2-c2ccccc2OC2CC2)CC1 [Compound I-51, 3-(1-{[5-chloro-2-(trifluoromethyl)phenyl]methoxy}cyclopropyl)-4-(2-cyclopropoxyphenyl) pyridine] | 126 to 1000
Clc1ccc(C2CC2)cc1CNC1(c2cnccc2-c2ccccc2OC2CC2)CC1 [Compound I-31, N-[(2-chloro-5-cyclopropylphenyl)methyl]-1-[4-(2-cyclopropoxyphenyl)pyridin-3-yl]cyclopropan-1-amine] | < 100
CCS(=O)(=O)CCN(CCCCC(C)c1ccc(Cl)c(CNC2(c3cnccc3-c3ccccc3OC3CC3)CC2)c1)C(=O)[C@@H](O)[C@@H](O)[C@H](O)[C@@H](O)CO (stereo partly drawn) [Compound I-296, (2S,3S,4R,5S)-N-(5-{4-chloro-3-[({1-[4-(2-cyclopropoxyphenyl)pyridin-3-yl]cyclopropyl}amino)methyl]phenyl}hexyl)-N-[2-(ethanesulfonyl)ethyl]-2,3,4,5,6-pentahydroxyhexanamide] | < 100
CC(CCCC(=O)N(CCCCCO)C[C@H](O)[C@@H](O)[C@H](O)[C@H](O)CO)c1ccc(Cl)c(CNC2(c3cnccc3-c3ccccc3OC3CC3)CC2)c1 (stereo partly drawn) [Compound I-261, 5-(4-chloro-3-(((1-(4-(2-cyclopropoxyphenyl)pyridin-3-yl)cyclopropyl)amino)methyl)phenyl)-N-(5-hydroxypentyl)-N-((2S,3R,4R,5R)-2,3,4,5,6-pentahydroxyhexyl) hexanamide] | < 100
CC(CCCC(=O)N(CCS(=O)(=O)N1CCOCC1)C[C@H](O)[C@@H](O)[C@H](O)[C@H](O)CO)c1ccc(Cl)c(CNC2(c3cnccc3-c3ccccc3OC3CC3)CC2)c1 (stereo partly drawn) [Compound I-262, 5-(4-chloro-3-(((1-(4-(2-cyclopropoxyphenyl)pyridin-3-yl)cyclopropyl)amino)methyl)phenyl)-N-(2-(morpholinosulfonyl)ethyl)-N-((2S,3R,4R,5R)-2,3,4,5,6-pentahydroxyhexyl)hexanamide] | < 100
O=C(NCCCCNC(=O)NC[C@H](O)[C@@H](O)[C@H](O)[C@H](O)CO)NCCCCSc1ccc(Cl)c(COC2(c3cnccc3-c3ccccc3OC3CC3)CC2)c1 [Compound I-629, 1-(4-{[(4-{[4-chloro-3-({1-[4-(2-cyclopropoxyphenyl)pyridin-3-yl]cyclopropoxy}methyl)phenyl]sulfanyl}butyl)carbamoyl]amino}butyl)-3-[(2S,3R,4R,5R)-2,3,4,5,6-pentahydroxyhexyl]urea] | < 100
O=C(CCCCc1cc(Cl)c(COC2(c3cnccc3-c3ccccc3OC3CC3)CC2)cc1Cl)NCCOCCOCCOCCNC(=O)CCCCc1cc(Cl)c(COC2(c3cnccc3-c3ccccc3OC3CC3)CC2)cc1Cl [Compound I-90, N,N′-(((oxybis(ethane-2,1-diyl))bis(oxy))bis(ethane-2,1-diyl))bis(5-(2,5-dichloro-4-((1-(4-(2-cyclopropoxyphenyl)pyridin-3-yl)cyclopropoxy)methyl)phenyl)pentanamide)] | 126 to 1000
COc1c(F)cc(CNC2(c3cnccc3-c3ccccc3OC3CC3)CC2)c(C)c1Cl [Compound I-36, N-[(3-chloro-5-fluoro-4-methoxy-2-methylphenyl)methyl]-1-[4-(2-cyclopropoxyphenyl)pyridin-3-yl]cyclopropan-1-amine] | 126 to 1000
O=C1NCCN1CCN(CCCSc1ccc(Cl)c(COC2(c3cnccc3-c3ccccc3OC3CC3)CC2)c1)C(=O)[C@@H](O)[C@@H](O)[C@H](O)[C@@H](O)CO [Compound I-543, (2S,3S,4R,5S)-N-(3-{[4-chloro-3-({1-[4-(2-cyclopropoxyphenyl)pyridin-3-yl]cyclopropoxy}methyl)phenyl]sulfanyl}propyl)-2,3,4,5,6-pentahydroxy-N-[2-(2-oxoimidazolidin-1-yl)ethyl]hexanamide] | 126 to 1000
CSc1cc(CNC2(c3cnccc3-c3ccccc3OC3CC3)CC2)c(C)cn1 [Compound I-619, [4-(2-cyclopropoxyphenyl)pyridin-3-yl]-N-{[5-methyl-2-(methylsulfanyl)pyridin-4-yl]methyl}cyclopropan-1-amine] | < 100
Cc1nc(C)c(CNC2(c3cnccc3-c3ccccc3OC3CC3)CC2)nc1C [Compound I-27, 1-[4-(2-cyclopropoxyphenyl)pyridin-3-yl]-N-[(trimethylpyrazin-2-yl)methyl]cyclopropan-1-amine] | 126 to 1000
Oc1cc(Cl)c(CNC2(c3cnccc3-c3ccccc3OC3CC3)CC2)cc1Cl [Compound I-700, 2,5-dichloro-4-[([1-[4-(2-cyclopropoxyphenyl)pyridin-3-yl]cyclopropyl]amino)methyl]phenol] | < 100
Cc1ccc(C(C)CCCC(=O)NC[C@H](O)[C@@H](O)[C@H](O)[C@H](O)CO)cc1CNC1(c2cnccc2-c2ccccc2OC2CC2)CC1 (stereo partly drawn) [Compound I-257, 5-[3-[([1-[4-(2-cyclopropoxyphenyl)pyridin-3-yl]cyclopropyl]amino)methyl]-4-methylphenyl]-N-[(2S,3R,4R,5R)-2,3,4,5,6-pentahydroxyhexyl]hexanamide dihydrochloride] | < 100
CC(CCSc1ccc(Cl)c(COC2(c3cnccc3-c3ccccc3OC3CC3)CC2)c1)C(=O)NC[C@H](O)[C@@H](O)[C@H](O)[C@H](O)CO (stereo partly drawn) [Compound I-690, 4-{[4-chloro-3-({1-[4-(2-cyclopropoxyphenyl)pyridin-3-yl]cyclopropoxy}methyl)phenyl]sulfanyl}-2-methyl-N-[(2S,3R,4R,5R)-2,3,4,5,6-pentahydroxyhexyl]butanamide] | < 100

Further lines, results first:

EC50 [nM] | SMILES
< 100 | O=C(CCCCc1cc(Cl)c(COC2(c3cnccc3-c3ccccc3OC3CC3)CC2)cc1Cl)N(CCCO)C[C@H](O)[C@@H](O)[C@H](O)[C@H](O)CO [Compound I-218, 5-[2,5-dichloro-4-({1-[4-(2-cyclopropoxyphenyl)pyridin-3-yl]cyclopropoxy}methyl)phenyl]-N-(3-hydroxypropyl)-N-[(2S,3R,4R,5R)-2,3,4,5,6-pentahydroxyhexyl]pentanamide]
< 100 | CCCN(C[C@H](O)[C@@H](O)[C@H](O)[C@H](O)CO)C(=O)CCCCc1cc(Cl)c(COC2(c3cnccc3-c3ccccc3OC3CC3)CC2)cc1Cl [Compound I-129, 5-[2,5-dichloro-4-({1-[4-(2-cyclopropoxyphenyl)pyridin-3-yl]cyclopropoxy}methyl)phenyl]-N-[(2S,3R,4R,5R)-2,3,4,5,6-pentahydroxyhexyl]-N-propylpentanamide]
< 100 | O=C(C1CCOCC1)N(CCCCc1cc(Cl)c(COC2(c3cnccc3-c3ccccc3OC3CC3)CC2)cc1Cl)C[C@H](O)[C@@H](O)[C@H](O)[C@H](O)CO [Compound I-67, N-(4-(2,5-dichloro-4-((1-(4-(2-cyclopropoxyphenyl)pyridin-3-yl)cyclopropoxy)methyl)phenyl)butyl)-N-((2S,3R,4R,5R)-2,3,4,5,6-pentahydroxyhexyl)tetrahydro-2H-pyran-4-carboxamide]
< 100 | CN(CCCCNS(=O)(=O)c1ccc(Cl)c(COC2(c3cnccc3-c3ccccc3OC3CC3)CC2)c1)C(=O)[C@@H](O)[C@@H](O)[C@H](O)[C@@H](O)CO [Compound I-460, (2S,3S,4R,5S)-N-{4-[4-chloro-3-({1-[4-(2-cyclopropoxyphenyl)pyridin-3-yl]cyclopropoxy}methyl)benzenesulfonamido]butyl}-2,3,4,5,6-pentahydroxy-N-methylhexanamide]
< 100 | CS(=O)(=O)CCN(C[C@H](O)[C@@H](O)[C@H](O)[C@H](O)CO)C(=O)CCCCc1cc(Cl)c(COC2(c3cnccc3-c3ccccc3OC3CC3)CC2)cc1Cl [Compound I-130, 5-[2,5-dichloro-4-({1-[4-(2-cyclopropoxyphenyl)pyridin-3-yl]cyclopropoxy}methyl)phenyl]-N-(2-methanesulfonylethyl)-N-[(2S,3R,4R,5R)-2,3,4,5,6-pentahydroxyhexyl]pentanamide]
< 100 | CN(C[C@H](O)[C@@H](O)[C@H](O)[C@H](O)CO)C(=O)CCCCc1cc(Cl)c(COC2(c3cnccc3-c3ccccc3OC3CC3)CC2)cc1Cl [Compound I-136, 5-[2,5-dichloro-4-({1-[4-(2-cyclopropoxyphenyl)pyridin-3-yl]cyclopropoxy}methyl)phenyl]-N-methyl-N-[(2S,3R,4R,5R)-2,3,4,5,6-pentahydroxyhexyl]pentanamide]
126 to 1000 | CN(C)S(=O)(=O)CCN(C[C@H](O)[C@@H](O)[C@H](O)[C@H](O)CO)C(=O)CCCSc1ccc(Cl)c(COC2(c3cnccc3-c3ccccc3OC3CC3)CC2)c1 [Compound I-693, 4-{[4-chloro-3-({1-[4-(2-cyclopropoxyphenyl)pyridin-3-yl]cyclopropoxy}methyl)phenyl]sulfanyl}-N-[2-(dimethylsulfamoyl)ethyl]-N-[(2S,3R,4R,5R)-2,3,4,5,6-pentahydroxyhexyl]butanamide]
< 100 | CN(CCCCNC(=O)NC[C@H](O)[C@@H](O)[C@H](O)[C@H](O)CO)S(=O)(=O)c1cc(COC2(c3cnccc3-c3ccccc3OC3CC3)CC2)c(Cl)cc1Cl [Compound I-467, 1-{4-[N-methyl2,4-dichloro-5-({1-[4-(2-cyclopropoxyphenyl)pyridin-3-yl]cyclopropoxy}methyl)benzenesulfonamido]butyl}-3-[(2S,3R,4R,5R)-2,3,4,5,6-pentahydroxyhexyl]urea]
